Experimental data taken from patent US12215140B2, “Method of stabilizing protein contained in specimen and solution for stabilizing protein contained in specimen” (EIKEN KAGAKU KABUSHIKI KAISHA, priority 2018, dated 2025).

Biological target: hemoglobin (Homo sapiens, UniProt P68871+P69905)
Experiment: Stability of hemoglobin in samples preserved at 37° C. in preservation solution containing no haptoglobin, Hb measured by latex agglutination method (Examples 8, 9 and Table 10)
Protocol: Preservation solutions were prepared with the addition of 40 mmol/L HEPES (pH 6.8), 0.1% BSA, 0.1% NaN3, and 0 to 2.5 mmol/L phenylboronic acid. […] Samples obtained by adding hemoglobin-added fecal specimens to the preservation solutions so that the fecal concentration would be 0.5% were preserved at 37° C. for 0, 16, 38, and 62 hours. The fecal specimens were added with hemoglobin having an amount such that the hemoglobin concentration in the samples would be about 300 μg/L. Instead of the fecal specimens to which hemoglobin was added, samples containing no fecal specimens, in which hemoglobin was added to the preservation solutions so that the hemoglobin concentration in the samples would be 300 μg/L, were similarly preserved. The hemoglobin (Hb) concentrations (μg/L) in the preserved samples were measured by the latex agglutination method using the same measurement reagent and measurement device as in Example 1.
The concentration of phenylboronic acid in the preservation solutions of Example 8 was fixed to 0.5 mmol/L, preservation solutions to which sorbitol or sucrose was further added at 10 to 250 mmol/L or trehalose, glucose, fructose, or mannitol was further added at 50 to 100 mmol/L were prepared, and testing was conducted in the same manner as in Example 8. In addition, preservation solutions to which the phenylboronic acid was added but no sugar was added were prepared, preservation solutions to which the phenylboronic acid and sugar were not added were prepared for the comparative examples, and testing was conducted in the same manner.
For comparative examples, preservation solutions to which no arylboronic acid was added were prepared, and testing was conducted in the same manner.

[1] = Feces 1, 0 h at 37° C., arylboronic acid 0.5 mmol/L, no sugar
[2] = Feces 1, 16 h at 37° C., arylboronic acid 0.5 mmol/L, no sugar
[3] = Feces 1, 38 h at 37° C., arylboronic acid 0.5 mmol/L, no sugar
[4] = Feces 1, 62 h at 37° C., arylboronic acid 0.5 mmol/L, no sugar
[5] = Feces 1, arylboronic acid 0.5 mmol/L, 0 h at 37° C.
[6] = Feces 1, arylboronic acid 0.5 mmol/L, 16 h at 37° C.
[7] = Feces 1, arylboronic acid 0.5 mmol/L, 38 h at 37° C.
[8] = Feces 1, arylboronic acid 0.5 mmol/L, 62 h at 37° C.
[9] = Feces 1, arylboronic acid 1 mmol/L, 0 h at 37° C.
[10] = Feces 1, arylboronic acid 1 mmol/L, 16 h at 37° C.
[11] = Feces 1, arylboronic acid 1 mmol/L, 38 h at 37° C.
[12] = Feces 1, arylboronic acid 1 mmol/L, 62 h at 37° C.
[13] = Feces 2, 0 h at 37° C., arylboronic acid 0.5 mmol/L, no sugar
[14] = Feces 2, 16 h at 37° C., arylboronic acid 0.5 mmol/L, no sugar
[15] = Feces 2, 38 h at 37° C., arylboronic acid 0.5 mmol/L, no sugar
[16] = Feces 2, 62 h at 37° C., arylboronic acid 0.5 mmol/L, no sugar
[17] = Feces 2, arylboronic acid 0.5 mmol/L, 0 h at 37° C.
[18] = Feces 2, arylboronic acid 0.5 mmol/L, 16 h at 37° C.
[19] = Feces 2, arylboronic acid 0.5 mmol/L, 38 h at 37° C.
[20] = Feces 2, arylboronic acid 0.5 mmol/L, 62 h at 37° C.
[21] = Feces 2, arylboronic acid 1 mmol/L, 0 h at 37° C.
[22] = Feces 2, arylboronic acid 1 mmol/L, 16 h at 37° C.
[23] = Feces 2, arylboronic acid 1 mmol/L, 38 h at 37° C.
[24] = Feces 2, arylboronic acid 1 mmol/L, 62 h at 37° C.
[25] = Feces 3, 0 h at 37° C., arylboronic acid 0.5 mmol/L, no sugar
[26] = Feces 3, 16 h at 37° C., arylboronic acid 0.5 mmol/L, no sugar
[27] = Feces 3, 38 h at 37° C., arylboronic acid 0.5 mmol/L, no sugar
[28] = Feces 3, 62 h at 37° C., arylboronic acid 0.5 mmol/L, no sugar
[29] = Feces 3, arylboronic acid 0.5 mmol/L, 0 h at 37° C.
[30] = Feces 3, arylboronic acid 0.5 mmol/L, 16 h at 37° C.
[31] = Feces 3, arylboronic acid 0.5 mmol/L, 38 h at 37° C.
[32] = Feces 3, arylboronic acid 0.5 mmol/L, 62 h at 37° C.
[33] = Feces 3, arylboronic acid 1 mmol/L, 0 h at 37° C.
[34] = Feces 3, arylboronic acid 1 mmol/L, 16 h at 37° C.
[35] = Feces 3, arylboronic acid 1 mmol/L, 38 h at 37° C.
[36] = Feces 3, arylboronic acid 1 mmol/L, 62 h at 37° C.
[37] = No feces, 0 h at 37° C., arylboronic acid 0.5 mmol/L, no sugar
[38] = No feces, 16 h at 37° C., arylboronic acid 0.5 mmol/L, no sugar
[39] = No feces, 38 h at 37° C., arylboronic acid 0.5 mmol/L, no sugar
[40] = No feces, 62 h at 37° C., arylboronic acid 0.5 mmol/L, no sugar
[41] = No feces, arylboronic acid 0.5 mmol/L, 0 h at 37° C.
[42] = No feces, arylboronic acid 0.5 mmol/L, 16 h at 37° C.
[43] = No feces, arylboronic acid 0.5 mmol/L, 38 h at 37° C.
[44] = No feces, arylboronic acid 0.5 mmol/L, 62 h at 37° C.
[45] = No feces, arylboronic acid 1 mmol/L, 0 h at 37° C.
[46] = No feces, arylboronic acid 1 mmol/L, 16 h at 37° C.
[47] = No feces, arylboronic acid 1 mmol/L, 38 h at 37° C.
[48] = No feces, arylboronic acid 1 mmol/L, 62 h at 37° C.

Sequence of hemoglobin (P69905 2-142): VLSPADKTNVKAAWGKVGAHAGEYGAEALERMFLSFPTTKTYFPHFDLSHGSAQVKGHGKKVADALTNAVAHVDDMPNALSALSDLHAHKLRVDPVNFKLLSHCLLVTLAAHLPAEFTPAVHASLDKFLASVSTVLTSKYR
Sequence of hemoglobin (P68871 2-147): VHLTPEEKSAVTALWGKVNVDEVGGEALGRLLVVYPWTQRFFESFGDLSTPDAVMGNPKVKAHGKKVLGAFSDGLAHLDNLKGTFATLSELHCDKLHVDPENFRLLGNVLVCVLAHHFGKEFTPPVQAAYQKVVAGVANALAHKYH

For `OB(O)c1ccccc1` [PBA], the Hb concentration [1] was 300 µg/L, the “Recovery ratio with respect to Hb after 0 days” value (“Recovery ratio” below) [1] was 100% and the Hb concentration [2] was 174 µg/L. The “Recovery ratio” value [2] was 58%, the Hb concentration [3] was 74 µg/L and the “Recovery ratio” value [3] was 25%. The Hb concentration [4] was 17 µg/L, the “Recovery ratio” value [4] was 6% and the Hb concentration [5] was 300 µg/L. For the same molecule, the “Recovery ratio” value [5] was 100%, the Hb concentration [6] was 174 µg/L and the “Recovery ratio” value [6] was 58%. For the same molecule, the Hb concentration [7] was 74 µg/L, the “Recovery ratio” value [7] was 25% and the Hb concentration [8] was 17 µg/L. For the same molecule, the “Recovery ratio” value [8] was 6%, the Hb concentration [9] was 298 µg/L and the “Recovery ratio” value [9] was 100%. The Hb concentration [10] was 182 µg/L, the “Recovery ratio” value [10] was 61% and the Hb concentration [11] was 92 µg/L. For the same molecule, the “Recovery ratio” value [11] was 31%, the Hb concentration [12] was 30 µg/L and the “Recovery ratio” value [12] was 10%. For the same molecule, the Hb concentration [13] was 299 µg/L, the “Recovery ratio” value [13] was 100% and the Hb concentration [14] was 103 µg/L. The “Recovery ratio” value [14] was 34%, the Hb concentration [15] was 10 µg/L and the “Recovery ratio” value [15] was 3%. The Hb concentration [16] was 0 µg/L, the “Recovery ratio” value [16] was 0% and the Hb concentration [17] was 299 µg/L. The “Recovery ratio” value [17] was 100%, the Hb concentration [18] was 103 µg/L and the “Recovery ratio” value [18] was 34%. The Hb concentration [19] was 10 µg/L, the “Recovery ratio” value [19] was 3% and the Hb concentration [20] was 0 µg/L. The “Recovery ratio” value [20] was 0%, the Hb concentration [21] was 299 µg/L and the “Recovery ratio” value [21] was 100%. The Hb concentration [22] was 119 µg/L, the “Recovery ratio” value [22] was 40% and the Hb concentration [23] was 17 µg/L. For the same molecule, the “Recovery ratio” value [23] was 6%, the Hb concentration [24] was 0 µg/L and the “Recovery ratio” value [24] was 0%. For the same molecule, the Hb concentration [25] was 289 µg/L, the “Recovery ratio” value [25] was 100% and the Hb concentration [26] was 92 µg/L. For the same molecule, the “Recovery ratio” value [26] was 32%, the Hb concentration [27] was 8 µg/L and the “Recovery ratio” value [27] was 3%. The Hb concentration [28] was 0 µg/L, the “Recovery ratio” value [28] was 0% and the Hb concentration [29] was 289 µg/L. The “Recovery ratio” value [29] was 100%, the Hb concentration [30] was 92 µg/L and the “Recovery ratio” value [30] was 32%. For the same molecule, the Hb concentration [31] was 8 µg/L, the “Recovery ratio” value [31] was 3% and the Hb concentration [32] was 0 µg/L. For the same molecule, the “Recovery ratio” value [32] was 0%, the Hb concentration [33] was 287 µg/L and the “Recovery ratio” value [33] was 100%. The Hb concentration [34] was 112 µg/L, the “Recovery ratio” value [34] was 39% and the Hb concentration [35] was 14 µg/L. The “Recovery ratio” value [35] was 5%, the Hb concentration [36] was 0 µg/L and the “Recovery ratio” value [36] was 0%. For the same molecule, the Hb concentration [37] was 295 µg/L, the “Recovery ratio” value [37] was 100% and the Hb concentration [38] was 284 µg/L. The “Recovery ratio” value [38] was 96%, the Hb concentration [39] was 270 µg/L and the “Recovery ratio” value [39] was 91%. The Hb concentration [40] was 263 µg/L, the “Recovery ratio” value [40] was 89% and the Hb concentration [41] was 295 µg/L. For the same molecule, the “Recovery ratio” value [41] was 100%, the Hb concentration [42] was 284 µg/L and the “Recovery ratio” value [42] was 96%. The Hb concentration [43] was 270 µg/L, the “Recovery ratio” value [43] was 91% and the Hb concentration [44] was 263 µg/L. For the same molecule, the “Recovery ratio” value [44] was 89%, the Hb concentration [45] was 292 µg/L and the “Recovery ratio” value [45] was 100%. For the same molecule, the Hb concentration [46] was 276 µg/L, the “Recovery ratio” value [46] was 95% and the Hb concentration [47] was 261 µg/L. The “Recovery ratio” value [47] was 90%, the Hb concentration [48] was 259 µg/L and the “Recovery ratio” value [48] was 89%.
